The subject of the assay is 786-0 complex spheroid viability. As to the kind of experiment: Anticancer human tumor 786-0 cell line growth inhibition.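 On all read-outs here: spheroids exposed to agents for seven days before readout.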 Particulars: for viability, T/C: stronger effect = lower value. A digest of the protocol:
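Drug combinations with the LSD1 inhibitor iadademstat tested on tumor cells co-cultured as spheroids with endothelial cells and mesenchymal stem cells. Concentrations descended in half-log increments from clinical Cmax or 10 microM.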

Where [1] appears, read: curve of first compound, second compound 0.1 µM.
Setting [2] is: curve of first compound, second compound 0.316 µM.
Setting [3] is: curve of first compound, second compound 1 µM.
Where [4] appears, read: curve of first compound, second compound 3.16 µM.
Where [5] appears, read: curve of first compound, second compound 10 µM.
The mark [6] stands for this setting: second compound 0.1 µM, first compound 0.000316 µM.
The mark [7] stands for this setting: second compound 0.1 µM, first compound 0.001 µM.
[8] abbreviates: second compound 0.1 µM, first compound 0.00316 µM.
Where [9] appears, read: second compound 0.1 µM, first compound 0.01 µM.
Where [10] appears, read: second compound 0.1 µM, first compound 0.0316 µM.
The mark [11] stands for this setting: second compound 0.1 µM, first compound 0.1 µM.
The mark [12] stands for this setting: second compound 0.316 µM, first compound 0.000316 µM.
[13] abbreviates: second compound 0.316 µM, first compound 0.001 µM.
[14] abbreviates: second compound 0.316 µM, first compound 0.00316 µM.
Setting [15] is: second compound 0.316 µM, first compound 0.01 µM.
The mark [16] stands for this setting: second compound 0.316 µM, first compound 0.0316 µM.
[17] abbreviates: second compound 0.316 µM, first compound 0.1 µM.
Setting [18] is: second compound 1 µM, first compound 0.000316 µM.
Setting [19] is: second compound 1 µM, first compound 0.001 µM.
The mark [20] stands for this setting: second compound 1 µM, first compound 0.00316 µM.
[21] abbreviates: second compound 1 µM, first compound 0.01 µM.
Where [22] appears, read: second compound 1 µM, first compound 0.0316 µM.
Setting [23] is: second compound 1 µM, first compound 0.1 µM.
The mark [24] stands for this setting: second compound 3.16 µM, first compound 0.000316 µM.
Setting [25] is: second compound 3.16 µM, first compound 0.001 µM.
Where [26] appears, read: second compound 3.16 µM, first compound 0.00316 µM.
Setting [27] is: second compound 3.16 µM, first compound 0.01 µM.
Setting [28] is: second compound 3.16 µM, first compound 0.0316 µM.
Setting [29] is: second compound 3.16 µM, first compound 0.1 µM.
Where [30] appears, read: second compound 10 µM, first compound 0.000316 µM.
Setting [31] is: second compound 10 µM, first compound 0.001 µM.
Where [32] appears, read: second compound 10 µM, first compound 0.00316 µM.
Where [33] appears, read: second compound 10 µM, first compound 0.01 µM.
Where [34] appears, read: second compound 10 µM, first compound 0.0316 µM.
Where [35] appears, read: second compound 10 µM, first compound 0.1 µM.
Setting [36] is: second compound 0.1 µM, first compound 0.316 µM.
The mark [37] stands for this setting: second compound 0.1 µM, first compound 1 µM.
Where [38] appears, read: second compound 0.316 µM, first compound 0.316 µM.
The mark [39] stands for this setting: second compound 0.316 µM, first compound 1 µM.
The mark [40] stands for this setting: second compound 1 µM, first compound 0.316 µM.
[41] abbreviates: second compound 1 µM, first compound 1 µM.
Setting [42] is: second compound 3.16 µM, first compound 0.316 µM.
Setting [43] is: second compound 3.16 µM, first compound 1 µM.
[44] abbreviates: second compound 10 µM, first compound 0.316 µM.
Where [45] appears, read: second compound 10 µM, first compound 1 µM.

Data on seven compounds can be found in PubChem BioAssay AID1918944 (Molecular Pharmacology Branch, DTP, NCI, 2023).

pIC50: −log10 of the molar value. Where “and” joins values, the source holds several entries; their conditions need not be identical. Identical values can stand only once.

The pIC50 is the negative decadic logarithm of the IC50, by convention in mol/L. For orientation: viability, T/C means the result in the treated group divided by that in the control group, in per cent.

With `CC(C)CC(NC(=O)C(Cc1ccccc1)NC(=O)c1cnccn1)B(O)O` (stereo unspecified) + NC1CC1c1ccc(-c2cccc(O)c2)cc1, the pIC50 runs as follows: under setting [1], 8.43; under setting [2], 8.45; under setting [3], 8.47; under setting [4], 8.49; under setting [5], 8.63. The viability, T/C was 114% under setting [6]; 110% under setting [7]; 55.5% under setting [8]; 11.2% under setting [9]; 1.11% under setting [10]; 0.47% under setting [11]. In addition, the viability, T/C under setting [12] is 114%; the viability, T/C under setting [13] was 111%; the viability, T/C under setting [14] is 53.5%; the viability, T/C under setting [15] is 9.41%; the viability, T/C under setting [16] was 1.04%; the viability, T/C under setting [17] is 0.33%. Besides, the viability, T/C is, setting by setting: under setting [18], 114%; under setting [19], 109%; under setting [20], 51.8%; under setting [21], 10.7%; under setting [22], 1.17%; under setting [23], 0.5%. Moreover, the viability, T/C reads like this: under setting [24], 105%; under setting [25], 110%; under setting [26], 50.4%; under setting [27], 9.96%; under setting [28], 1.23%; under setting [29], 0.53%. The viability, T/C was 102% under setting [30]; 99.6% under setting [31]; 32.9% under setting [32]; 6.5% under setting [33]; 0.86% under setting [34]; 0.34% under setting [35].

On to `CC1COCCN1c1cc(-c2ccnn2C)c2ccnc(-c3ccn[nH]3)c2n1` (stereo unspecified) + NC1CC1c1ccc(-c2cccc(O)c2)cc1, for which the pIC50 was 7.32 under setting [1]; 7.34 under setting [2]; 7.36 under setting [3]; 7.51 under setting [4]; 7.76 under setting [5]. Also, the viability, T/C is 119% under setting [8]; 108% under setting [9]; 63.8% under setting [10]; 25.9% under setting [11]; 16.2% under setting [36]; 17.9% under setting [37]. Further, the viability, T/C under setting [14] is 115%; the viability, T/C under setting [15] is 107%; the viability, T/C under setting [16] was 62.5%; the viability, T/C under setting [17] was 22.7%; the viability, T/C under setting [38] is 15%; the viability, T/C under setting [39] was 17.3%. Also, the viability, T/C runs as follows: under setting [20], 111%; under setting [21], 111%; under setting [22], 61.5%; under setting [23], 22.6%; under setting [40], 15.8%; under setting [41], 17%. Besides, the viability, T/C under setting [26] was 112%; the viability, T/C under setting [27] is 98.5%; the viability, T/C under setting [28] was 48.2%; the viability, T/C under setting [29] is 23.1%; the viability, T/C under setting [42] is 15%; the viability, T/C under setting [43] was 18.4%. In addition, the viability, T/C reads like this: under setting [32], 103%; under setting [33], 70.2%; under setting [34], 28.4%; under setting [35], 17%; under setting [44], 12.9%; under setting [45], 19.6%.

In the case of `Nc1ccccc1NC(=O)c1ccc(CNC(=O)OCc2cccnc2)cc1`, the viability, T/C runs as follows: (compound 0.00949 µM) 98.3% and 104%; (compound 0.03 µM) 103% and 113%; (compound 0.0949 µM) 102% and 108%; (compound 0.3 µM) 93.9% and 93.5%; (compound 0.949 µM) 68% and 73.5%; (compound 3 µM) 14.8% and 23%. For the same compound, the pIC50 (curve of compound) is 5.85 and 5.79.

`COc1ccc([C@@H](O)c2cc(-c3ncnc4cc(N5CCOCC5)ccc34)c(F)cc2Cl)nn1` + NC1CC1c1ccc(-c2cccc(O)c2)cc1: the pIC50 reads like this: under setting [1], 5.44; under setting [2], 5.30; under setting [3], 5.42; under setting [4], 5.55; under setting [5], 5.66. The viability, T/C was 98.2% under setting [10]; 100% under setting [11]; 96.2% under setting [36]; 79.2% under setting [37]; 52% (second compound 0.1 µM, first compound 3.16 µM); 37% (second compound 0.1 µM, first compound 10 µM). Also, the viability, T/C was 108% under setting [16]; 110% under setting [17]; 102% under setting [38]; 86.9% under setting [39]; 56.2% (second compound 0.316 µM, first compound 3.16 µM); 40% (second compound 0.316 µM, first compound 10 µM). Moreover, the viability, T/C is, setting by setting: under setting [22], 101%; under setting [23], 92.9%; under setting [40], 93%; under setting [41], 80%; (second compound 1 µM, first compound 3.16 µM) 51.7%; (second compound 1 µM, first compound 10 µM) 38%. Besides, the viability, T/C under setting [28] was 90.1%; the viability, T/C under setting [29] is 93.7%; the viability, T/C under setting [42] was 88.2%; the viability, T/C under setting [43] was 78.1%; the viability, T/C (second compound 3.16 µM, first compound 3.16 µM) is 46.3%; the viability, T/C (second compound 3.16 µM, first compound 10 µM) was 38.4%. In addition, the viability, T/C was 92.3% under setting [34]; 84.5% under setting [35]; 81.3% under setting [44]; 65.7% under setting [45]; 41.8% (second compound 10 µM, first compound 3.16 µM); 34.7% (second compound 10 µM, first compound 10 µM).

On to `Nc1ncn(C2CC(O)C(CO)S2)c(=O)n1` (stereo unspecified), for which the viability, T/C is, setting by setting: (compound 0.000949 µM) 110% and 99.7%; (compound 0.003 µM) 109% and 112%; (compound 0.00949 µM) 117% and 112%; (compound 0.03 µM) 103% and 102%; (compound 0.0949 µM) 67.7% and 83.2%; (compound 0.3 µM) 30.5% and 47.9%. The pIC50 (curve of compound) is 6.79 and 6.55.

In the case of `CC[C@@]1(O)C(=O)OCc2c1cc1n(c2=O)Cc2cc3c(CN(C)C)c(O)ccc3nc2-1` + NC1CCC(NC2CC2c2ccccc2)CC1, the pIC50 reads like this: under setting [1], 8.29; under setting [2], 8.29; under setting [3], 8.28; under setting [4], 8.36; under setting [5], 8.52. Moreover, the viability, T/C reads like this: under setting [6], 114%; under setting [7], 113%; under setting [8], 77.3%; under setting [9], 11.8%; under setting [10], 5.31%; under setting [11], 3.53%. For the same compound, the viability, T/C reads like this: under setting [12], 111%; under setting [13], 105%; under setting [14], 78.3%; under setting [15], 10.8%; under setting [16], 5.38%; under setting [17], 3.62%. The viability, T/C by setting is: under setting [18], 115%; under setting [19], 105%; under setting [20], 80%; under setting [21], 10.3%; under setting [22], 5.66%; under setting [23], 3.63%. Further, the viability, T/C reads like this: under setting [24], 101%; under setting [25], 95.2%; under setting [26], 65.2%; under setting [27], 12.4%; under setting [28], 6.41%; under setting [29], 2.85%. The viability, T/C is, setting by setting: under setting [30], 84%; under setting [31], 71.7%; under setting [32], 50.3%; under setting [33], 6.62%; under setting [34], 5.01%; under setting [35], 3.36%.

Take `COc1cc(C2c3cc4c(cc3C(OC3OC5COC(C)OC5C(O)C3O)C3COC(=O)C23)OCO4)cc(OC)c1O` (stereo unspecified): the viability, T/C (compound 0.00949 µM) was 103% and 96%; the viability, T/C (compound 0.03 µM) was 96.4% and 94.6%; the viability, T/C (compound 0.0949 µM) was 63.6% and 72.1%; the viability, T/C (compound 0.3 µM) was 49.5% and 53.4%; the viability, T/C (compound 0.949 µM) is 23.1% and 38.4%; the viability, T/C (compound 3 µM) was 11.1% and 21.9%. For the same compound, the pIC50 (curve of compound) is 6.62 and 6.40.
